# Assay results from patent US20050112064A1, “DNA-dependent MRI contrast agents” (priority 2003, published 2005).
# “Also recorded” adds a separate entry of the source. Where two headings read alike, the source gives them in different places. Where no end group is shown, it is not given here.
# T1: P3 (engrailed HTH / consensus EF-hand chimeric peptide) (synthetic construct)
# T1 sequence: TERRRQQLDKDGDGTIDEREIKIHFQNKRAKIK
# Tests used:
# [1] = test system: supercoiled plasmid DNA (pBR322); assay: DNA gel shift assay (agarose gel electrophoresis); type: binding; details: 5-25 μM ligand, 15 minutes, pBR322, 10 mM Tris pH 8.0
# Experimental: DNA Gel Shift Assays. The affinity of EuP3, EuP2, and each free peptide for supercoiled plasmid DNA was examined by agarose gel electrophoresis. Plasmid (pBR322, New England Biolabs, Inc.) was incubated for 15 minutes at room temperature with increasing concentrations of each ligand (5-25 μM), prior to the addition of loading dye. Each lane contained 1 μg plasmid (50 μM base pairs) in 10 mM Tris buffer at pH 8.0.
# [2] = Hydrolysis of bis-nitrophenylphosphate (BNPP) followed spectrophotometrically; type: biochemical; details: 37° C., BNPP 500 μM
# Experimental: Hydrolytic Phosphate Cleavage. Because the EF-Hand is physiologically strictly a structural motif, an isolated Ca-binding loop's ability to affect hydrolytic cleavage was addressed. The hydrolysis of bis-nitrophenylphosphate (BNPP) was followed spectrophotometrically under turnover conditions. The absorbance increase at 400 nm due to liberated 4-nitrophenolate was observed over the initial 10-14 hours of the reaction (<10% BNPP converted). […] Plots of absorbance vs. time were converted to concentration units (ε=18,500 M^−1 cm^−1) to give first order rate constants (Sardesai et al., 1994).
# [3] = Relaxivity (water proton relaxation) without DNA; type: physicochemical; details: 37° C., 50 mM HEPES, pH 7.4
# Experimental: (§1) P3W peptide ([…], Gd-binding EF-hand site is shaded) was synthesized and purified (>95% by HPLC) by the Caltech Peptide Synthesis Facility, Pasadena, Calif. The gadolinium complex was prepared by dissolving P3W in 50 mM HEPES buffer, pH 7.4, and adding 0.8 equivalents Gd(NO3)3 to give a 500 μM stock solution. Peptide concentration was estimated by absorbance (ε280=7290 M^−1cm^−1); the absence of uncomplexed Gd^3+ was confirmed by colorometric analysis with xylenol orange. All Gd concentrations were determined by ICP-MS (Agilent 7500). Relaxation rates were determined at 20 and 60 MHz, 37° C. using Broker NMS 120 and Brtiker mg60 Minispec spectrometers, respectively. NMRD profiles were recorded on a Koenig-Brown field cycling relaxometer; phantoms were imaged on a GE 1.5T clinical imager.
# [4] = T1-weighted MR imaging of phantoms at 1.5 tesla; details: 1.5 T, HEPES buffer pH 7.4, ambient temperature
# Experimental: FIG. 6. T1-weighted MR images at 1.5 tesla of phantoms in HEPES buffer, pH 7.4, ambient temperature. (A) 3D SPGR TR=40, TE=3.1, α=75°. Images: a) HEPES; b) 80 μM P3W; c) 80 μM DNA (14-mer duplex); d) 115 μM GdDTPA; e) 115 μM GdDTPA+DNA (1:1); f) 8.6 μM GdP3W+DNA (1:1); g) 86 μM GdP3W; h) 86 μM GdP3W+DNA (1:1); i) 86 μM GdP3W+DNA (1:1)+NaCl (150 μM). (B) 3D SPGR TR=40, TE=4.0, α=40°. Images: a) HEPES, b) 48 μM GdDTPA, c) 48 μM GdP3W; d) 48 μM GdP3W+DNA.
# as §1
# [5] = test system: 14-mer d.s. DNA: self-complementary 5′-GAGCTAATTAGCTC-3′; assay: Relaxivity in the presence of one equivalent DNA; type: physicochemical; details: 37° C., 50 mM HEPES, pH 7.4, one equivalent DNA
# Experimental: as §1
# [6] = cited from earlier work
# [7] = test system: supercoiled, double-stranded DNA; assay: Cleavage of supercoiled plasmid monitored by agarose gel electrophoresis; type: biochemical
# Experimental: The conversion of supercoiled plasmid (type I) to open circular (type II), linear (type III), or smaller fragments was monitored by agarose gel electrophoresis. Because the synthetic peptides bind strongly to DNA, thus preventing the observation of products, the peptides were chelated prior to electrophoresis (Falke et al., 1994). At the point each reaction was quenched (0.1 M EDTA), a suspension of neutral, washed, cation resin (Amberlyst, 10-20 μL) was incubated with each sample for 30 minutes, spun down, and the supernatent loaded into wells. After 24 hours of reaction (incubated at 37° C.), the concentration-dependent formation of open circular plasmid was observed. […] Over a 10-300 μM EuP3 gradient, nicking occurred from 10-150 μM, with the greatest amount of cleavage at 30 μM EuP3.
# Sequence Selective DNA Cleavage. […] This cleavage is not dependent on the strain inherent in supercoiled plasmid, as cleavage of linearized ^32P-labeled DNA oligonucleotides was observed as well. Labeled fragments were incubated with Ce(NH3)6(NO3)4 and varying concentrations of peptides P3 or P3W at 37° C. overnight and analyzed by acrylamide gel electrophoresis. Cleavage was concentration dependent, and distinct between metallopeptides.
# [8] = test system: T1, P3 (engrailed HTH / consensus EF-hand chimeric peptide) (synthetic construct); assay: EMSA; details: Eu(III) complex EuP3; agarose gel shift, estimate from quantified band volumes; 10 mM Tris pH 8.0, room temp
# [9] = biological target: P4a (chimeric peptide: alpha2 and alpha3 of engrailed, minus the last turn of alpha2 and the beta-turn, with calmodulin loop I); assay: measured dissociation constants for EuP4a; method not stated; self-association in the presence of Eu(III)
# [10] = 10 μM Eu/10 μM peptide, pH 7.7, 10 mM Tris buffer
# [11] = 25 μM Eu/25 μM peptide, pH 7.7, 10 mM Tris buffer
# [12] = 25 μM Eu/50 μM peptide, pH 7.7, 10 mM Tris buffer
molecule,measurement,setting,value
"[Cl][Eu]([Cl])[Cl] [EuCl3, reference compound]",gel shift / DNA affinity (in words),[1],not
same,Rates (K(obs)) of BNPP cleavage,"[2]; 10 μM Eu/0 peptide, pH 7.7, 5 mM Tris buffer",5.2 ± 0.6 s^−1 × 10^7
same,Rates (K(obs)) of BNPP cleavage,"[2]; 12 μM Eu/0 peptide, pH 7.7, 5 mM Tris buffer",5.7 ± 0.3 s^−1 × 10^7
O=C([O-])CN(CCN(CC(=O)[O-])CC(=O)O)CCN(CC(=O)[O-])CC(=O)O.[Gd+3] [GdDTPA],r1,[3]; 20 MHz,4.6 mM⁻¹ s⁻¹
same,r1,[3]; 60 MHz,3.5 mM⁻¹ s⁻¹
same,"signal / contrast in T1-weighted image, with DNA (1:1)",[4],did not increase the signal
same,"signal / contrast in T1-weighted image, without DNA",[4],difficult to discern
same,r1 + DNA,[5]; 20 MHz,4.9 mM⁻¹ s⁻¹
same,r1 + DNA,[5]; 60 MHz,3.5 mM⁻¹ s⁻¹
O=C([O-])CN(CCN(CC(=O)[O-])C[C@H](COP(=O)([O-])OC1CCC(c2ccccc2)(c2ccccc2)CC1)N(CC(=O)[O-])CC(=O)[O-])CC(=O)[O-].[Gd+3].[H+].[H+].[H+] [MS-325],relaxivity,[6]; 60 MHz,23 mM⁻¹ s⁻¹
EuP3: Eu(III) metallopeptide of P3 (TERRRQQLDKDGDGTIDEREIKIHFQNKRAKIK),dependence of cleavage activity on increasing concentration,[7],falls off with increasing concentration
same,concentration range in which nicking occurred,[7]; 10-300 μM EuP3 gradient,10 to 150 µM
same,concentration with the greatest amount of cleavage,[7]; 10-300 μM EuP3 gradient,30 µM
same,cleavage of supercoiled DNA (in words),[7]; 37° C.,"catalyzes the cleavage of supercoiled, double-stranded DNA"
same,gel shift / DNA affinity (in words),[1],gel shift and disappearance of type I plasmid occurs; also recorded: DNA-binding affinity in the micromolar regime
same,Rates (K(obs)) of BNPP cleavage,[2]; [10],6.0 s^−1 × 10^7
same,Rates (K(obs)) of BNPP cleavage,[2]; [11],7.3 s^−1 × 10^7
same,Rates (K(obs)) of BNPP cleavage,[2]; [12],20.6 s^−1 × 10^7
same,Rates (K(obs)) of BNPP cleavage,"[2]; 50 μM Eu/50 μM peptide, pH 7.7, 5 mM Tris buffer",17.5 ± 4 s^−1 × 10^7
same,Rates (K(obs)) of BNPP cleavage,"[2]; 50 μM Eu/100 μM peptide, pH 7.7, 5 mM Tris buffer",11.5 ± 4 s^−1 × 10^7
EuP4a: Eu(III) metallopeptide of P4a (TERRRFDKDGNGYISAAELRHVKIWFQNKRAKIK),dependence of cleavage activity on increasing concentration,[7],does not
same,Rates (K(obs)) of BNPP cleavage,[2]; [10],11.3 s^−1 × 10^7
same,Rates (K(obs)) of BNPP cleavage,[2]; [11],56.3 s^−1 × 10^7
same,Rates (K(obs)) of BNPP cleavage,[2]; [12],62.0 s^−1 × 10^7
same,Rates (K(obs)) of BNPP cleavage,"[2]; 50 μM Eu/50 μM peptide, pH 7.7, 10 mM Tris buffer",149.5 s^−1 × 10^7
same,Rates (K(obs)) of BNPP cleavage,"[2]; 50 μM Eu/100 μM peptide, pH 7.7, 10 mM Tris buffer",212.0 s^−1 × 10^7
"Gd-TREN-1-Me=3,2-HOPO",relaxivity,[6]; 20 MHz and 37° C.,6 to 11 mM⁻¹ s⁻¹
pBR322 supercoiled plasmid,Kd,[8],20 µM
TERRRFDKDGNGYISAAELRHVKIWFQNKRAKIK (also: Eu(III) complex),Kdim (dimerization constant),[9],> 300 µM
